From patent publication US20100150938A1, “METHODS AND COMPOSITIONS FOR REDUCING INFLAMMATION AND TREATING INFLAMMATORY DISORDERS” (UNIVERSITY OF MASSACHUSETTS, priority 2008, published 2010)

Assays:
[1] = system: mouse macrophages; experiment: IL-1β release from LPS-primed mouse macrophages (bone marrow-derived, B6-MCLs), ELISA; type: cell-based; conditions: LPS-primed bone marrow-derived macrophages of wild type mice, Aβ 1, 5 and 10 μM
Procedure: (§1) Bone marrow derived macrophages were generated as described (Severa, M et al. Journal of Biological Chemistry 281:26188-26195 (2006)). Human PBMCs were isolated by from whole blood of healthy volunteers by density gradient centrifugation. Lysis of red blood cells was performed using red blood cell lysis buffer (Sigma). Experiments in PBMCs and macrophages were carried out at a cell density of 2×10^6 cells/ml. All primary cells and cell lines except THP-1 cells were cultured in DMEM supplemented with L-glutamine, ciprofloxacin (Cellgro, Manassas, Va.) and 10% fetal calf serum (Hyclone, Logan, Utah). THP-1 cells were cultured in RPMI supplemented with 10% fetal calf serum (Hyclone), L-glutamine, sodium pyruvate (Cellgro), and ciprofloxacin. One day prior to stimulation, THP-1 cells were differentiated using 0.5 μM PMA for three hours, washed three times and plated for stimulation. All experiments that were performed for Western blot analysis were carried out in serum free DMEM medium. ATP stimulations were carried out at 5 mM one hour prior to harvesting supernatants.
Immortalized macrophage cell lines were generated using the previously described J2 recombinant retrovirus (carrying v-myc and v-raf/mil oncogenes) (Roberson, S. M. & Walker, W. S. Cellular immunology 116:341-351 (1988)). Briefly, primary bone marrow cells were incubated in L929 conditioned medium for 3-4 days to induce macrophage differentiation. Subsequently, cells were infected with J2 recombinant retrovirus. Cells were maintained in culture for 3-6 months slowly weaning off the percentage of L929 supernatant until cells were growing in the absence of conditioned medium.
Macrophage phenotype was verified by surface marker expression for CD11b and F480 as well as a range of functional parameters, including responsiveness to TLR ligands and bacterial uptake. Macrophage cell lines from wild-type (C57BL6), NALP3- and ASC-deficient mice were generated and are referred to as B6-MCLs, NALP3 -MCLs and ASC-MCLs.
Cell culture supernatants were assayed for IL-1β using ELISA kits from BD Biosciences (Franklin Lakes, NJ) according to the manufacturer's instructions. To measure intracellular IL-1β, cells were washed and subjected to three freeze thaw cycles in assay diluent.
Stimulations were carried out in serum free DMEM medium. Microglial cells and macrophages were primed with 100 U/ml IFNγ (Griess assay, TNF ELISA, real-time quantitative PCR) or 100 ng/ml ultrapure LPS (IL-1β ELISA, FLICA, ASC-CFP microglia cell line assay, Western blot) 1-3 h prior to stimulation with Aβ, revAβ, zymosan, ATP or transfection with dAdT.

[2] = system: caspase-1; experiment: Caspase-1 cleavage/activation in mouse macrophages (Western blot p10); type: cell-based; conditions: LPS-primed wild type bone marrow-derived macrophages, Aβ and reverse Aβ 10 μM
Procedure: as §1
Cell culture supernatants were precipitated by adding an equal volume of methanol and 0.25 volumes of chloroform, vortexed and centrifuged at 20.000×g for 10 min. The upper phase was discarded and 500 μl of methanol was added to the interphase. This mixture was centrifuged at 20.000×g for 10 min and the protein pellet dried at 55° C., resuspended in Laemmli buffer and boiled at 99° C. for 5 min. Samples were separated by SDS-PAGE (15%) and transferred onto nitrocellulose membranes. As indicated, blots were incubated with rabbit polyclonal antibody to anti murine caspase-1 p10 (sc-514, Santa Cruz Biotechnology, Santa Cruz, Calif.), rabbit polyclonal anti human caspase-1 p10 (sc-515, Santa Cruz Biotechnology), rabbit polyclonal anti human cleaved IL-1β (Asp116) (Cell Signaling, Boston, Mass.) or rabbit polyclonal anti murine cathepsin B (R&D Systems, Minneapolis, Minn.).
Cell culture supernatants were precipitated by adding an equal volume of methanol and 0.25 volumes of chloroform, vortexed and centrifuged at 20,000×g for 10 min. The upper phase was discarded and 500 μl of methanol was added to the interphase. This mixture was centrifuged at 20,000×g for 10 min and the protein pellet dried at 55° C., resuspended in Laemmli buffer and boiled at 99° C. for 5 min Samples were separated by SDS-PAGE (15%) and transferred onto nitrocellulose membranes. Blots were incubated with rabbit polyclonal antibody to anti murine caspase-1 p10 (sc-514, Santa Cruz Biotechnology, Santa Cruz, Calif.).

[3] = system: caspase-1; experiment: Caspase-1 activation in microglia (FLICA, confocal microscopy, flow cytometry); type: cell-based, mouse; conditions: immortalized microglia, Aβ 10 μM, revAβ 10 μM, ATP 1 mM, 4 h
Procedure: For assessment of microglia-induced neurotoxicity, CAD mouse neuronal cells^47 were seeded on poly-L-lysine coated glass cover slips and grown in F12/DMEM supplemented with ciprofloxacin (Cellgro, Manassas, Va.) and 10% fetal calf serum (Hyclone, Logan, Utah) for 24 h. Differentiation was induced by withdrawal of serum for 48 h Immortalized microglia from wildtype or caspase-1^−/− mice were added in serum free medium to obtain mixed neuronal/microglial cultures and immediately stimulated. 72 h after stimulation with Aβ or media, cells were fixed, stained for the neuron-specific marker TuJ-1 and microglial marker CD11b, and imaged by confocal microscopy (Leica SP2 AOBS). Caspase-1 activity in microglial cells was assessed using the caspase-1 FLICA™ kit (Immunochemistry Technologies, Bloomington, Minn.) according to the manufacturer's instructions.
For evaluation of lysosomal damage, cells were incubated with LysoTracker green (1:2000) for 30 min and stimulated as described. Lysosomal damage was defined as loss of LysoTracker fluorescence as assessed by flow cytometry. All flow cytometry experiments were performed on an LSRII cytometer (BD Biosciences), data were acquired by DIVA software (BD Biosciences) and analyzed with FlowJo software (Tree Star Inc., Ashland, Oreg.).
IL-1β maturation is controlled by caspase-1 after assembly of the inflammasome, a multi protein complex that activates pro-caspase-1. In order to test whether Aβ activates caspase-1, we measured levels of activated caspase-1 using a fluorescent cell permeable probe (FAM-YVAD-Fmk), which covalently binds only to activated caspase-1 (Fluorescent labeled Inhibitors of Caspases, FLICA)^14. […] Similar results were obtained in primary microglial cultures (FIG. 15c).

Aβ 1-42 peptide was tested. Which “IL-1β release induced by Aβ” value [1] did it give?
Its value is “strong and dose-dependent IL-1β release”.

What about the “caspase-1 cleavage (p10) induced by the stimulus” value [2] of the same substance?
Its value is “induced caspase-1 cleavage (p10)”.

And the “caspase-1 positive microglial cells after stimulation” value [3]?
Its value is “robust increase”.
